Laboratory results from patent US9688630B2, “3,3′-disubstituted indolines as inhibitors of cholesterol ester transfer protein” (Merck Sharp & Dohme Corp., priority 2013, dated 2017).

Assays:
recombinant CETP = biological target: T1, recombinant CETP (Homo sapiens, UniProt P11597); assay: RTA assay using recombinant CETP (2% RTA); type: biochemical; conditions: 2% human serum
T1 sequence (P11597 18-493): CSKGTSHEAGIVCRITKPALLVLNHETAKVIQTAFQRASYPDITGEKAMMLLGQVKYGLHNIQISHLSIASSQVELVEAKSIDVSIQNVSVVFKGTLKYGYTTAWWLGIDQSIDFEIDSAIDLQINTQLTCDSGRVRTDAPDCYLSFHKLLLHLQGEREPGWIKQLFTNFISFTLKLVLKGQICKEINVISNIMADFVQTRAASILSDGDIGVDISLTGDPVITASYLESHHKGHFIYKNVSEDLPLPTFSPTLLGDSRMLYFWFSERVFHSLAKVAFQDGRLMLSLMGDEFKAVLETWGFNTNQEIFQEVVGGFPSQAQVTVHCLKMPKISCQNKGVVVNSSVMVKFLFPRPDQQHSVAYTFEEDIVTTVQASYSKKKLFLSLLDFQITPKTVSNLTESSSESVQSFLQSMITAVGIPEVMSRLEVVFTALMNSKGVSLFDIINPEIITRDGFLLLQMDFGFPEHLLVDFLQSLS
Description: (§1) In Vitro Radioactive Assays of CETP-Catalyzed CE and TG Transfer (RTA Assay)
(§2) Reagents and sources are: [3H] cholesteryl oleate (GE #TRK.886), [3H] Triolein (Perkin-Elmer NET-431), Butylated hydroxyl toluene (Aldrich, #D4740-4), DOPC (Sigma, #P6354), Sodium Bromide (Fisher scientific #S255-500), PEG 8000 (Fisher, #BP233-1), and human HDL (Intracel Corp #RP-036).
(§3) An in vitro assay for determining IC50's to identify compounds that inhibit CETP transfer activity is performed based on a modification of a published method (Morton and Zilversmit, (1981) A plasma inhibitor of triglyceride and cholesteryl ester transfer activities, J. Biol. Chem. 256(23), 11992-11995). The ability of inhibitors to alter CETP activity is performed using two different assays: one using recombinant CETP and one using an endogenous plasma source of CETP. Both assays measure the transfer of [3H] cholesteryl oleate or [3H] triolein from exogenous LDL to HDL.
(§4) Radiolabeled donor particles are generated by first combining 100 μl of 200 μM butylated hydroxyl toluene in CHCl3, 216 μL of 21.57 mM DOPC in EtOH, and either 500 μCi [3H]-triolein (Perkin Elmer #NET-431) or 500 μCi [3H]-cholesteryl oleate (GE #TRK886) in a glass tube. Reagents are mixed, dried under nitrogen, and then resuspended in 2 mL of 50 mM Tris, 27 μM EDTA at pH 7.4. After a brief vortex, the solution is sonicated until clear and mixed with 20 mL of fresh human serum. The mixture is incubated overnight at 37° C. The [3H] labeled LDL substrate is separated at 1.063 g/ml density by sequential ultracentrifugal flotation in NaBr according to the method of Havel, Eder, et al., 1955, and Chapman, Goldstein, et al., 1981. Once isolated the particles are dialyzed 3× in CETP buffer (50 mM Tris, pH 7.4, 100 mM NaCl, 1 mM EDTA). Human HDL is purchased from Intracel and used as the acceptor particles.
(§5) Transfer assays are performed in a 96-well v-bottom polypropylene plate. For the RTA using recombinant CETP (2% RTA), an assay cocktail is prepared with the final concentrations 128 μg/mL HDL, 20 nM rCETP, 2% human serum, and 1×CETP buffer. 1 μL of each test compound diluted in DMSO is added to 47 μL of assay cocktail per well and incubated at 37° C. for 1 hour. To initiate the transfer reaction, 2 μL radiolabeled LDL is added. After an additional 60 min of incubation at 37° C., the transfer action is terminated by precipitation of LDL with an equal volume of 20% W/V PEG 8000. The plates are centrifuged at 2000 rpm for 30 minutes at 4° C. A 40 μL aliquot of the HDL-containing supernatant is transferred to a Packard Optiplate™ with 200 μL of MicroScint™ 20. After mixing, plates are counted by liquid scintillation. Counts present in the supernatant for blanks (wells containing only HDL acceptor, CETP buffer and DMSO) are subtracted from those containing test compounds and used to correct for non-specific transfer.
(§6) Comparison of the counts of samples with inhibitors to an uninhibited (DMSO only) positive control yield a percent inhibition. A plot of percent inhibition vs. log of inhibitor concentration, fit to a Sigmoidal 4 parameter equation is used to calculate IC50.

[1] = biological target: T2, endogenous CETP from human serum (Homo sapiens, UniProt P11597); assay: RTA assay using endogenous CETP from serum (95% RTA); type: biochemical; conditions: 95% human serum
T2 construct: yielding a concentration of approximately 15 nM endogenous CETP in the assay; from tissue; host or cells: human serum
T2 sequence (P11597 18-493): T1 sequence (P11597 18-493)
Description: as §1, §2, §3, §4, §5
For the transfer assay using endogenous CETP from serum (95% RTA), the same procedure is used except that human serum is added such that a final concentration of serum of 95% of the total assay volume is achieved, yielding a concentration of approximately 15 nM endogenous CETP in the assay. This is then combined with HDL and CETP buffer and the reaction proceeds as above and is terminated as described.
as §6

SMILES: O[C@H](CN1CC(Cc2cccc(Br)c2)(c2cccc(OC(F)(F)F)c2)c2ccccc21)C(F)(F)F (stereo partly drawn) [Example 3, (2R)-3-(3-(3-bromobenzyl)-3-(3-(trifluoromethoxy)phenyl)indolin-1-yl)-1,1,1-trifluoropropan-2-ol]
- IC50 (recombinant CETP): 67 nM
- IC50 [1]: 308 nM

SMILES: Cc1ccc(C2(Cc3cccc(OC(F)(F)F)c3)CN(C[C@@H](O)C(F)(F)F)c3ccccc32)cc1-c1ccc(C(=O)O)cc1 (stereo partly drawn) [Example 28]
- IC50 (recombinant CETP): 1510 nM

SMILES: CS(=O)(=O)c1cccc(CC2(c3cccc(OC(F)(F)F)c3)CN(C[C@@H](O)C(F)(F)F)c3ccccc32)c1 (stereo partly drawn) [Example 46, (2R)-1,1,1-trifluoro-3-(3-(3-(methylsulfonyl)benzyl)-3-(3-(trifluoromethoxy)phenyl)indolin-1-yl)propan-2-ol]
- IC50 (recombinant CETP): 264 nM
- IC50 [1]: 8960 nM

SMILES: O[C@H](CN1CC(Cc2cccc(OC(F)(F)F)c2)(c2cccc(OC(F)(F)F)c2)c2cc(F)ccc21)C(F)(F)F (stereo partly drawn) [Example 6]
- IC50 [1]: 763 nM

SMILES: O[C@H](CN1CC(Cc2cccc(C(F)(F)F)c2)(c2cccc(OC(F)(F)F)c2)c2cccc(F)c21)C(F)(F)F (stereo partly drawn) [Example 17]
- IC50 (recombinant CETP): 66 nM
- IC50 [1]: 706 nM

SMILES: Cc1cc(C(=O)O)ccc1-c1cccc(C2(Cc3cccc(OC(F)(F)F)c3)CN(C[C@@H](O)C(F)(F)F)c3ccccc32)c1 (stereo partly drawn) [Example 27]
- IC50 (recombinant CETP): 378 nM
- IC50 [1]: 4070 nM

SMILES: N#Cc1cccc(CC2(c3cccc(OC(F)(F)F)c3)CN(C[C@@H](O)C(F)(F)F)c3ccccc32)c1 (stereo partly drawn) [Example 45, 3-((1-((R)-3,3,3-trifluoro-2-hydroxypropyl)-3-(3-(trifluoromethoxy)phenyl)indolin-3-yl)methyl)benzonitrile]
- IC50 (recombinant CETP): 171 nM
- IC50 [1]: 917 nM

SMILES: O[C@H](CN1CC(Cc2cccc(N3CC4(COC4)C3)c2)(c2cccc(OC(F)(F)F)c2)c2ccccc21)C(F)(F)F (stereo partly drawn) [Example 55]
- IC50 (recombinant CETP): 98 nM
- IC50 [1]: 533 nM

SMILES: O[C@H](CN1CC(Cc2cccc(OC(F)(F)F)c2)(c2ccc(F)c(Cl)c2)c2ccccc21)C(F)(F)F (stereo partly drawn) [Example 19]
- IC50 (recombinant CETP): 883 nM
- IC50 [1]: 3740 nM

SMILES: CC(C)Oc1cc(C2(Cc3cccc(OC(F)(F)F)c3)CN(C[C@@H](O)C(F)(F)F)c3ccccc32)ccn1 (stereo partly drawn) [Example 22]
- IC50 (recombinant CETP): 43 nM
- IC50 [1]: 101 nM

SMILES: O[C@H](CN1CC(Cc2ccc(F)cn2)(c2cccc(OC(F)(F)F)c2)c2cccc(F)c21)C(F)(F)F (stereo partly drawn) [Example 15]
- IC50 (recombinant CETP): 2860 nM

SMILES: CO[C@@H]1CCN(c2cccc(C3(Cc4cccc(OC(F)(F)F)c4)CN(C[C@@H](O)C(F)(F)F)c4ccccc43)c2)C1 (stereo partly drawn) [Example 36]
- IC50 (recombinant CETP): 115 nM
- IC50 [1]: 780 nM

SMILES: C[C@@H]1CN(c2cccc(CC3(c4cccc(OC(F)(F)F)c4)CN(C[C@@H](O)C(F)(F)F)c4ccccc43)c2)CCO1 (stereo partly drawn) [Example 51]
- IC50 (recombinant CETP): 1610 nM
- IC50 [1]: 1720 nM

SMILES: CO[C@H]1CCN(c2cccc(C3(Cc4cccc(OC(F)(F)F)c4)CN(C[C@@H](O)C(F)(F)F)c4ccccc43)c2)C1 (stereo partly drawn) [Example 37]
- IC50 (recombinant CETP): 77 nM
- IC50 [1]: 395 nM

SMILES: O[C@H](CN1CC(Cc2cccc(N3CC(F)(F)C3)c2)(c2cccc(OC(F)(F)F)c2)c2ccccc21)C(F)(F)F (stereo partly drawn) [Example 48, (2R)-3-(3-(3-(3,3-difluoroazetidin-1-yl)benzyl)-3-(3-(trifluoromethoxy)phenyl)indolin-1-yl)-1,1,1-trifluoropropan-2-ol]
- IC50 (recombinant CETP): 83 nM
- IC50 [1]: 246 nM

SMILES: O=C(O)c1ccc(-c2cccc(C3(Cc4cccc(OC(F)(F)F)c4)CN(C[C@@H](O)C(F)(F)F)c4ccccc43)c2)cc1 (mixture of isomers) [Example 26, 3′-(1-((R)-3,3,3-trifluoro-2-hydroxypropyl)-3-(3-(trifluoromethoxy)-benzyl)indolin-3-yl)-[1,1′-biphenyl]-4-carboxylic acid]
- IC50 (recombinant CETP): 1350 nM
- IC50 [1]: 3860 nM

SMILES: CCOc1cc(C2(Cc3cccc(OC)c3)CN(C[C@@H](O)C(F)(F)F)c3ccccc32)ccn1 (stereo partly drawn) [Example 23]
- IC50 (recombinant CETP): 249 nM
- IC50 [1]: 681 nM

SMILES: O[C@H](CN1CC(Cc2cccc(OC(F)(F)F)c2)(c2cccc(N3CCCC(F)(F)C3)c2)c2ccccc21)C(F)(F)F (stereo partly drawn) [Example 40]
- IC50 (recombinant CETP): 119 nM
- IC50 [1]: 791 nM

SMILES: CC1(O)CN(c2cccc(C3(Cc4cccc(OC(F)(F)F)c4)CN(C[C@@H](O)C(F)(F)F)c4ccccc43)c2)C1 (stereo partly drawn) [Example 33]
- IC50 (recombinant CETP): 1230 nM
- IC50 [1]: 4380 nM

SMILES: O[C@H](CN1CC(Cc2cccc(N3CC[C@H](F)C3)c2)(c2cccc(OC(F)(F)F)c2)c2ccccc21)C(F)(F)F (stereo partly drawn) [Example 57]
- IC50 (recombinant CETP): 350 nM
- IC50 [1]: 3680 nM

SMILES: CO[C@H]1CCN(c2cccc(CC3(c4cccc(OC(F)(F)F)c4)CN(C[C@@H](O)C(F)(F)F)c4ccccc43)c2)C1 (stereo partly drawn) [Example 49]
- IC50 (recombinant CETP): 197 nM
- IC50 [1]: 2100 nM

SMILES: O[C@H](CN1CC(Cc2cccc(OC(F)(F)F)c2)(c2cc(F)cc(C(F)(F)F)c2)c2ccccc21)C(F)(F)F (stereo partly drawn) [Example 13]
- IC50 (recombinant CETP): 102 nM
- IC50 [1]: 2510 nM

SMILES: Cc1ccc(C2(Cc3cccc(OC(F)(F)F)c3)CN(C[C@@H](O)C(F)(F)F)c3ccccc32)cc1Cl (stereo partly drawn) [Example 18]
- IC50 (recombinant CETP): 161 nM
- IC50 [1]: 1350 nM

SMILES: Cc1cc(C(=O)O)ccc1-c1cc(C2(Cc3cccc(OC(F)(F)F)c3)CN(C[C@@H](O)C(F)(F)F)c3ccccc32)ccc1C (stereo partly drawn) [Example 29]
- IC50 (recombinant CETP): 1690 nM

SMILES: Cc1cc(C(=O)O)ccc1-c1cc(C2(Cc3cccc(OC(F)(F)F)c3)CN(C[C@@H](O)C(F)(F)F)c3ccccc32)ccc1F (stereo partly drawn) [Example 30]
- IC50 (recombinant CETP): 328 nM

SMILES: O[C@H](CN1CC(Cc2cccc(OC(F)(F)F)c2)(c2cccc(OC(F)(F)F)c2)c2cccc(F)c21)C(F)(F)F (stereo partly drawn) [Example 12]
- IC50 (recombinant CETP): 67 nM
- IC50 [1]: 222 nM

SMILES: O[C@H](CN1CC(Cc2cccc(OC(F)(F)F)c2)(c2cccc(N[C@@H]3CCOC3)c2)c2ccccc21)C(F)(F)F (mixture of isomers) [Example 32]
- IC50 (recombinant CETP): 252 nM
- IC50 [1]: 1430 nM

SMILES: O[C@H](CN1CC(Cc2cccc(-c3cccc(OC(F)(F)F)c3)c2)(c2cccc(OC(F)(F)F)c2)c2ccccc21)C(F)(F)F (stereo partly drawn) [Example 47, (2R)-1,1,1-trifluoro-3-(3-((3′-(trifluoromethoxy)-[1,1′-biphenyl]-3-yl)methyl)-3-(3-(trifluoromethoxy)phenyl)indolin-1-yl)propan-2-ol]
- IC50 (recombinant CETP): 720 nM
- IC50 [1]: 2880 nM

SMILES: O[C@H](CN1CC(Cc2cccc(OC(F)(F)F)c2)(c2cccc(N3CC(F)C3)c2)c2ccccc21)C(F)(F)F (stereo partly drawn) [Example 34]
- IC50 (recombinant CETP): 59 nM
- IC50 [1]: 319 nM

SMILES: O[C@H](CN1CC(Cc2cccc(OC(F)(F)F)c2)(c2cccc(N3CC[C@@H](F)C3)c2)c2ccccc21)C(F)(F)F (stereo partly drawn) [Example 42]
- IC50 (recombinant CETP): 40 nM
- IC50 [1]: 766 nM

SMILES: O[C@H](CN1CC(Cc2cccc(OC(F)(F)F)c2)(c2ccc(OC(F)(F)F)cc2)c2ccccc21)C(F)(F)F (stereo partly drawn) [Example 7]
- IC50 [1]: 232 nM

SMILES: O[C@H](CN1CC(Cc2cccc(OC(F)(F)F)c2)(c2cccc(OC(F)(F)F)c2)c2ccccc21)C(F)(F)F (stereo partly drawn) [Example 10]
- IC50 [1]: 69 nM
